# According to patent US20180267043A1, “USE OF BIOMARKERS FOR PREDICTING CLINICAL SENSITIVITY TO CANCER TREATMENT” (CELGENE CORPORATION, priority 2014, published 2018):
# Columns and labels:
# [1] = system: Aiolos, CK1a, GSPT1 in OCI-LY10; assay: Western blot analysis in lymphoma cell line OCI-LY10; format: cell-based; details: OCI-LY10, 100 μM Compound C, 6 hours
# Text: Cells were harvested with RIPA buffer, and proteins from cell lysates were separated by 10% sodium dodecyl sulfate polyacrylamide (SDS-PAGE) gel electrophoresis (Bio-Rad), then transferred to PVDF membranes (Invitrogen). Immunoblots were probed with antibodies recognizing Aiolos (9-9-7; Celgene), CK1a (Abcam), GSPT1 (Sigma), ZFP91 (LSBio) and β-actin (Li-Cor). Signals were detected with a Li-Cor Odyssey imager.
# [2] = molecular target: T1, human CRBN isoform 2 (IKZF1/3, GSPT1/2 as substrates) (Homo sapiens, UniProt Q96SW2); assay: Substrate degradation in CRBN−/− cells expressing human CRBN isoform 2 or mutants; format: cell-based; details: cells expressing human CRBN isoform 2
# T1 construct: expressed in transfected cells; host or cells: CRBN-/- cells (elsewhere: 293FT, CRISPR)
# T1 sequence (Q96SW2 1-441 isoform Q96SW2-2): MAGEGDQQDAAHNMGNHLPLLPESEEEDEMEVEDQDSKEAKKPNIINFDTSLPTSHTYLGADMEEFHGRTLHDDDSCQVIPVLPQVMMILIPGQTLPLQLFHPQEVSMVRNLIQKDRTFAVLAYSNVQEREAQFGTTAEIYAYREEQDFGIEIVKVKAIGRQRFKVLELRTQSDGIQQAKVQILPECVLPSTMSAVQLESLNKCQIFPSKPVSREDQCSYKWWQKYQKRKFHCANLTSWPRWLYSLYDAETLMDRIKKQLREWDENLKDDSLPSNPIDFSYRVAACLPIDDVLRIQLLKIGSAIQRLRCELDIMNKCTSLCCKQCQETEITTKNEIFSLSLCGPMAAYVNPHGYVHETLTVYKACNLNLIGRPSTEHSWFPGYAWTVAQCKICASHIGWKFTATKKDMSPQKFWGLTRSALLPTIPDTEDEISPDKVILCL
# T1 sequence (Q16531 whole entry partner, canonical isoform): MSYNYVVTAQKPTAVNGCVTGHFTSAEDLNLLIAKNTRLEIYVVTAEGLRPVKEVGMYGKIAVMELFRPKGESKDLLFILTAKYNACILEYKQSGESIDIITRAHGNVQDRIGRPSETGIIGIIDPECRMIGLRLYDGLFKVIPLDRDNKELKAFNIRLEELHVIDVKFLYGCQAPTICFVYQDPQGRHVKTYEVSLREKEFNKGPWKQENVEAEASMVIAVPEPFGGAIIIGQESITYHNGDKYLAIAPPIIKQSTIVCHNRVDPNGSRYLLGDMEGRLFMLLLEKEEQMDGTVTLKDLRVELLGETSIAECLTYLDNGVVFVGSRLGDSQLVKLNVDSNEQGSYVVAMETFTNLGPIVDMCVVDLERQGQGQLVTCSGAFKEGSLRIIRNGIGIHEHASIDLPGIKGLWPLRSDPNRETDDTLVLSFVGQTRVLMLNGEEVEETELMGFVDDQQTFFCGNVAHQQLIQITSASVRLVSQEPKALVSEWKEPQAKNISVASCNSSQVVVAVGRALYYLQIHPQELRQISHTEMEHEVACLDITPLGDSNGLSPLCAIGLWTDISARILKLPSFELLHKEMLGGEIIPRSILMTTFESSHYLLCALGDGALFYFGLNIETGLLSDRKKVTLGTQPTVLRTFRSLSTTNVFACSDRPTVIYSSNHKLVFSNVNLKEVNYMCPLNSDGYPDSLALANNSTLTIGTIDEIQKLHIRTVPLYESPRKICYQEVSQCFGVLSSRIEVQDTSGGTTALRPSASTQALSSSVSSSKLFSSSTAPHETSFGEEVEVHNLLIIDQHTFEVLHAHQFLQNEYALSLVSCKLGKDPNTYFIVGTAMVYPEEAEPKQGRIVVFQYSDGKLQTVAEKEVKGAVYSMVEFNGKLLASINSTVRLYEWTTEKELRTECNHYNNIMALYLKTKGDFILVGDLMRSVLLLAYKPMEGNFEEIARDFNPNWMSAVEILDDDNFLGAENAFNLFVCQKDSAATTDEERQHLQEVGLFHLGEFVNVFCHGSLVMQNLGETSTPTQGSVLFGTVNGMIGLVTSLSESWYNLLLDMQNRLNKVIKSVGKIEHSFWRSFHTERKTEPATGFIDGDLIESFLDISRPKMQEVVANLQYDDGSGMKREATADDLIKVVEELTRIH
# Text: (§1) They were co-expressed together with GFP in CRBN −/− cells. These cells also expressed human CRBN isoform 2, or various specific mutants (hCRBNiso2 E376V, hCRBNiso2 V387I, or hCRBNiso2 W385A) by transfection with corresponding DNA.
# [3] = molecular target: T2, human CRBN isoform 2 (IKZF1/3, GSPT1/2 as substrates) (Homo sapiens, UniProt Q96SW2, E377V); assay: as above; format: cell-based; details: hCRBNiso2 E376V; 1 μM Compound C
# T2 construct: expressed in transfected cells; host or cells: CRBN-/- cells (elsewhere: 293FT, CRISPR)
# T2 sequence (Q96SW2 1-441 isoform Q96SW2-2 E376V): as the sequence (Q96SW2 1-441 isoform Q96SW2-2) above, with E376V counted along it
# T2 sequence (Q16531 whole entry partner, canonical isoform): as the sequence (Q16531 whole entry partner, canonical isoform) above
# Text: as §1
# [4] = molecular target: T3, human CRBN isoform 2 (IKZF1/3, GSPT1/2 as substrates) (Homo sapiens, UniProt Q96SW2, V388I); assay: as above; format: cell-based; details: hCRBNiso2 V387I; 1 μM Compound C
# T3 construct: expressed in transfected cells; host or cells: CRBN-/- cells (elsewhere: 293FT, CRISPR)
# T3 sequence (Q96SW2 1-441 isoform Q96SW2-2 V387I): as the sequence (Q96SW2 1-441 isoform Q96SW2-2) above, with V387I counted along it
# T3 sequence (Q16531 whole entry partner, canonical isoform): as the sequence (Q16531 whole entry partner, canonical isoform) above
# Text: as §1
# [5] = system: human CRBN isoform 2 (IKZF1/3, GSPT1/2 as substrates); assay: as above; format: cell-based; details: CRBN−/− cells without human CRBN; 10 μM lenalidomide or 1 μM Compound C
# Text: as §1
# HEK 293FT cells = assay: CellTiter-Glo cell viability assay, HEK 293FT cells with GSPT1 shRNA; format: cell-based, human
# Description: The effect of depletion of GSPT1 on Compound C-induced anti-proliferation was examined in HEK 293FT cells. Cells were infected with either expression vector alone, or vector containing control shRNA or GSPT1-specific shRNA. The cells were then treated with Compound C at different concentrations. Cell proliferation was measured by the CellTiter-Glo cell viability assay (RLU-Relative Luminescent Unit).
# RPMI-8226 = assay: CellTiter-Glo cell viability assay after GSPT1 knockdown, RPMI-8226; format: cell-based, human; details: RPMI-8226 expressing shGSPT1-1 or shGSPT1-3 vs parental or control shRNA, 0.01 nM to 0.1 μM, day 9
# Description: The effect of depletion of GSPT1 on the anti-proliferative effect of Compound C was determined in human multiple myeloma (MM) cell lines DF15 and RPMI-8226. Treatment compounds were titrated from 0.01 nM to 0.1 μM. Cell proliferation was measured by the CellTiter-Glo cell viability assay (RLU-Relative Luminescent Unit) at day 9 after GSPT1 knockdown by shGSPT1-1 or shGSPT1-3.
# U937 = assay: CellTiter-Glo cell viability assay, U937; format: cell-based, human; details: 48 hours
# Description: The effect of overexpression of GSPT1 on the anti-proliferative effect of Compound C was determined in human histiocytic lymphoma cell line U937 and human leukemia cell line Molm13. Treatment compounds were titrated from 0.1 nM to 1 μM. Cell proliferation was measured by CellTiter-Glo cell viability assay at 48 hours after treatment.
# XBP1 and ATF6 pathways [6] = assay: RNA level of XBP1 and ATF6 pathway components in 293FT HEK cells; format: cell-based, human; details: 1 nM or 10 nM, 24 hours
# Description: The mechanism of Compound C-activated XBP1 and ATF6 pathways was studied in 293FT HEK cells. Parental cells, CRBN−/− cells, cells expressing control shRNA, or cells expressing GSPT1-specific shRNA were treated with DMSO, 1 nM, or 10 nM Compound C. The RNA level of variant cellular components along the XBP1 and ATF6 pathways was measured and normalized with GAPDH at 24 hours after treatment.
# [7] = system: GSPT1, BIP, ER stress or apoptosis pathways; assay: Expression level of ER stress and apoptosis components in 293FT HEK cells; format: cell-based, human; details: 20 hours
# Description: CRBN+/+ and CRBN−/− cells were treated with DMSO alone, 1 nM, or 10 nM Compound C. After 20 hours, the expression level of various cellular components along the endoplasmic reticulum (ER) stress or apoptosis pathways was measured. […] BIP is an ER luminal KDEL protein that requires binding with KDEL receptor in the cis-Golgi to be retro-transported into the ER lumen for retention. Loss of GSPT1 leads to the inactivation of the eRF1/GSPT1 complex and therefore allows translation readthrough of de novo sysnthesized proteins such as BIP. Addition of extra residues to the BIP C-terminus blocks the recognization of KDEL motif and BIP C-terminal epitopes by the KDEL receptor and BIP C-terminal antibodies, respectively. […] BIP interacts with the ER luminal domain of UPR sensors PERK, IRE1, and ATF6 to prevent their activation. Reduction of BIP C-terminal immunoreactivity indicates a mislocalization of BIP, which presumably leads to its dissociation from PERK, IRE1, and ATF6 and induces UPR.
# XBP1 and ATF6 pathways [8] = assay: RNA level of XBP1 and ATF6 pathway components in DF15 MM cells; format: cell-based, human; details: DF15, 20 nM, 5, 10, or 23 hours
# Description: The mechanism of Compound C-activated XBP1 and ATF6 pathways was studied in DF15 MM cells. Cells were treated with DMSO or 20 nM Compound C for 5, 10, or 23 hours. The RNA level of variant cellular components along the XBP1 and ATF6 pathways was measured and normalized with GAPDH.
# [9] = 293FT parental and control shRNA cells
smiles,measurement,setting,value
"Cc1ccc(NC(=O)NCc2ccc3c(c2)CN(C2CCC(=O)NC2=O)C3=O)cc1Cl (centres unmarked) [Compound C, 1-(3-chloro-4-methylphenyl)-3-((2-(2,6-dioxopiperidin-3-yl)-1-oxoisoindolin-5-yl)methyl)urea]",Aiolos and CK1a protein levels,[1],also reduce
same,GSPT1 protein level,[1],reduces
same,Destruction of GSPT1/2,[2]; 1 μM Compound C,induces destruction of IKZF1/3 and GSPT1/2
same,Destruction of IKZF1/3,[2]; 10 μM lenalidomide or 1 μM Compound C,induces destruction of IKZF1/3 and GSPT1/2
same,Degradation of GSPT1/2,[3],abolishes Compound C-induced degradation of GSPT1/2
same,Degradation of IKZF1/3,[4],abolishes Compound C-induced degradation of IKZF1/3
same,"Degradation of tested substrates (IKZF1/3, GSPT1/2)",[5],neither compound triggers degradation of any tested substrate
same,Cell proliferation,"HEK 293FT cells; CRBN+/+ parental cells, expression vector alone, or control shRNA",show sensitivity to Compound C-induced anti-proliferation
same,Cell proliferation,HEK 293FT cells; CRBN−/− cells,cannot inhibit cell proliferation
same,Cell proliferation,HEK 293FT cells; GSPT1-specific shRNA knockdown,growth inhibition starting at even lower concentration of compound treatment
same,Anti-proliferative effect,RPMI-8226,increased anti-proliferative effect
same,Anti-proliferative effect,"U937; U937, exogenous GSPT1 overproduced via EF1a promoter",the anti-proliferative effect of Compound C reduces
same,Anti-proliferative effect,U937; U937 CRBN −/− cells,completely abolished
same,Cell proliferation,"U937; U937 parental cells, 0.1 nM to 1 μM",inhibits cell proliferation
same,"RNA level of ATF6 pathway components (XBP1, EDEM1, EDEM2, HYOU1, HSPA5)",XBP1 and ATF6 pathways [6]; [9],induces expression
same,"RNA level of XBP1 pathway components (SEC24D, DNAJB9, DNAJC6, XBP1, EDEM1, EDEM2, HYOU1)",XBP1 and ATF6 pathways [6]; [9],induces expression
same,RNA level of XBP1 and ATF6 pathway components,XBP1 and ATF6 pathways [6]; cells with GSPT1 knockdown,This induction effect increases
same,Degradation of GSPT1,"[7]; 293FT CRBN+/+ cells, 1 nM or 10 nM",induces degradation of GSPT1 in CRBN+/+ cells
same,Cellular components in acute apoptotic cell death,[7]; 293FT HEK cells,are not affected
same,Immunoreactivity of BIP antibody that binds to BIP amino-terminal region,"[7]; 293FT, 1 nM or 10 nM",is not affected
same,Immunoreactivity of KDEL antibody and BIP carboxyl-terminus (BIP-CT) antibody,"[7]; 293FT, 1 nM or 10 nM, dose dependent",dramatically decreased
same,"RNA level of ATF6 pathway components (XBP1, EDEM1, HYOU1, HSPA5)",XBP1 and ATF6 pathways [8],induces expression
same,"RNA level of XBP1 pathway components (SEC24D, DNAJB9, XBP1, EDEM1, HYOU1)",XBP1 and ATF6 pathways [8],induces expression
